Reference: ChEMBL document CHEMBL4177539, “Discovery of N-((3R,4R)-4-Fluoro-1-(6-((3-methoxy-1-methyl-1H-pyrazol-4-yl)amino)-9-methyl-9H-purin-2-yl)pyrrolidine-3-yl)acrylamide (PF-06747775) through Structure-Based Drug Design: A High Affinity Irreversible Inhibitor Targeting Oncogenic EGFR Mutants with Selectivity over Wild-Type EGFR” (J Med Chem, 2017)

Experiments:
in vitro [1] = details: dog, MDCK
in vitro [2] = details: human, liver microsomes
physchem = details: octanol/water
Homo sapiens = species on record: Homo sapiens; experiment: Selectivity index, ratio of IC50 for wild-type EGFR autophosphorylation in human A549 cells to IC50 for EGFR T790M/L858R double mutant autophosphorylation in human H1975 cells; type: cell-based
[3] = target: Epidermal growth factor receptor (Homo sapiens, UniProt P00533)
Sequence of Epidermal growth factor receptor (P00533 whole entry): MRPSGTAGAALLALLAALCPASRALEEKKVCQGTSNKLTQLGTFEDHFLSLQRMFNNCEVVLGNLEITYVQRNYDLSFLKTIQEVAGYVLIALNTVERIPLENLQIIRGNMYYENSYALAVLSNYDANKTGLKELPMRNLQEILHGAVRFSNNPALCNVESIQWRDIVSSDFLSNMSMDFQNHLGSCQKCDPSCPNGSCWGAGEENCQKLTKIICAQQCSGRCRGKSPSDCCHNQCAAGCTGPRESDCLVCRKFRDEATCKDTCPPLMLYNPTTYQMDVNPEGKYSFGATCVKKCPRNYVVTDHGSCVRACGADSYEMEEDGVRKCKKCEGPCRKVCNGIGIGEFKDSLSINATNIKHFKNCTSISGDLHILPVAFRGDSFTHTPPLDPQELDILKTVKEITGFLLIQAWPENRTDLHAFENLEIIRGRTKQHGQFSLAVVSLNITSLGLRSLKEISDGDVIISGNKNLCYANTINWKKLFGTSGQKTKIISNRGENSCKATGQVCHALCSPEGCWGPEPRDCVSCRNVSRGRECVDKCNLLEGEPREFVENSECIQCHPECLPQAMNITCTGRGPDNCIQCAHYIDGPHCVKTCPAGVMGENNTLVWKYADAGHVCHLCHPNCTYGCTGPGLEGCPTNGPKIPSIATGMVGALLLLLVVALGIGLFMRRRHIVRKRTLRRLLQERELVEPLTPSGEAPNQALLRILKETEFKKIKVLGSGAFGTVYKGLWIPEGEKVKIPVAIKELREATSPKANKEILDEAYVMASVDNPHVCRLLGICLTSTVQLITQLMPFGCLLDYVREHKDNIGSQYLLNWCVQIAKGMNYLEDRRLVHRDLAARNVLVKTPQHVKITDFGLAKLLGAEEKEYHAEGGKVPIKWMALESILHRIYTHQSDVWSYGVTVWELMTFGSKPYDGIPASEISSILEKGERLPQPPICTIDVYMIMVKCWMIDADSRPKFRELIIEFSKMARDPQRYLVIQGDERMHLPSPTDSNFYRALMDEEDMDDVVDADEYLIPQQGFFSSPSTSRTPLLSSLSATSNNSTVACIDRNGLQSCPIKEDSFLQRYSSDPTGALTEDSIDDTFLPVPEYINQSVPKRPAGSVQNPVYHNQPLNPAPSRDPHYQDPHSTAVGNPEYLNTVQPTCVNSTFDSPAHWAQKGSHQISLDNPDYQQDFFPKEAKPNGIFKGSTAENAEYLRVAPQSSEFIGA

Hepatocyte = details: human, hepatocytes, 1 µM

Compound | Papp (in vitro [1]) | microsomal CLint at […], 1 µM (in vitro [2]) | logD (physchem) | Ratio IC50 (Homo sapiens) | IC50 [3] | CLH (Hepatocyte)
C=CC(=O)N[C@@H]1CN(c2nc(Nc3cn(C)nc3OC)c3nc[nH]c3n2)C[C@H]1F | 2 ×10⁻⁶ cm/s | 8 µL/min/mg | 1.8 |  |  | 
C=CC(=O)N1CC[C@H](Nc2nc(Nc3ccc(N4CCN(C)CC4)cc3)c3ncn(C(C)C)c3n2)C1 |  |  | 1.8 | > 35 | > 10 µM | 
C=CC(=O)N[C@@H]1CN(c2nc(Nc3cn(C)nc3OC)c3ncn(C(C)C)c3n2)C[C@H]1F | 18 ×10⁻⁶ cm/s | 32 µL/min/mg | 2.6 |  |  | 23 µL/min/mg
